This note sets out measurements from the supplement of paper PMC12137928.

In the assay the test system is HCT116. The conditions noted are these: 72 h. In short, it runs like this: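 HCT116 cells were seeded at 250 per well in 1536-well plates and left 5 h to attach. CellTiter-Glo luminescence was scaled to vehicle (0%) and positive control (-100%), then pattern-corrected. IC50 and maximal efficacy came from four-parameter Hill fits.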

Structures can show the parent of a compound that is named as a salt.

Consider `CN1CCN(C2=Nc3ccccc3Sc3ccc(Cl)cc32)CC1` [Clothiapine], for which the IC50 cell viability is, setting by setting: (ICRF193 0 nM) over 45.8 µM; (ICRF193 200 nM) over 45.8 µM.

On to `COc1cc2c(cc1OC)C1CC(=O)C(CC(C)C)CN1CC2` (stereo not drawn) [Tetrabenazine Mesylate], for which the IC50 cell viability is, setting by setting: (ICRF193 0 nM) over 45.8 µM; (ICRF193 200 nM) over 45.8 µM.

Turning to `Cc1ccc(N(CC2=NCCN2)c2cccc(O)c2)cc1` [Phentolamine mesilate], the IC50 cell viability was over 45.8 µM (ICRF193 0 nM) and over 45.8 µM (ICRF193 200 nM).

As for `CC(=O)OC(C)C[N+](C)(C)C` (stereo not drawn) [Methacholine chloride], the IC50 cell viability by setting is: (ICRF193 0 nM) over 45.8 µM; (ICRF193 200 nM) over 45.8 µM.

Regarding `CCCN(CCc1cccs1)[C@H]1CCc2c(O)cccc2C1` [Rotigotine], the IC50 cell viability reads like this: (ICRF193 0 nM) over 45.8 µM; (ICRF193 200 nM) over 45.8 µM.

For the molecule `O=C(O)c1cc(O)c2c3nc4ccccc4oc-3cc(=O)c2n1` [Pirenoxine Sodium], the IC50 cell viability is, setting by setting: (ICRF193 0 nM) over 45.8 µM; (ICRF193 200 nM) over 45.8 µM.

On to `CCn1ccc(NS(=O)(=O)c2ccc(N)cc2)nc1=O` [Sulfacytine], for which the IC50 cell viability reads like this: (ICRF193 0 nM) over 45.8 µM; (ICRF193 200 nM) over 45.8 µM.

On to `CCC(=O)C(CCN(C)C)(c1ccccc1)c1ccccc1` [Normethadone], for which the IC50 cell viability was over 45.8 µM (ICRF193 0 nM) and over 45.8 µM (ICRF193 200 nM).

For the molecule `CN1[C@@H]2CC[C@H]1C[C@@H](OC(c1ccccc1)c1ccccc1)C2` [Benztropine mesylate], the IC50 cell viability was over 45.8 µM (ICRF193 0 nM) and over 45.8 µM (ICRF193 200 nM).

On to `CC(C)CCCC(C)NC(C)C` (stereo not drawn) [IPROHEPTINE], for which the IC50 cell viability (ICRF193 0 nM) is over 45.8 µM and the IC50 cell viability (ICRF193 200 nM) is over 45.8 µM.

For `NC(=O)c1ccc[n+]([C@@H]2O[C@H](COP(=O)([O-])OP(=O)(O)OC[C@H]3O[C@@H](n4cnc5c(N)ncnc54)[C@H](O)[C@@H]3O)[C@@H](O)[C@H]2O)c1` [NAD+], the IC50 cell viability was over 45.8 µM (ICRF193 0 nM) and over 45.8 µM (ICRF193 200 nM).

As to `CCCCCCCCCCCCCCCC(=O)OC/C=C(C)/C=C/C=C(C)/C=C/C1=C(C)CCCC1(C)C` [Retinyl palmitate], the IC50 cell viability was over 45.8 µM (ICRF193 0 nM) and over 45.8 µM (ICRF193 200 nM).

As to `CCCCCCCCCCC(=O)O[C@H]1CC[C@H]2[C@@H]3CCC4=CC(=O)CC[C@]4(C)[C@H]3CC[C@]12C` [Testosterone (undecanoate)], the IC50 cell viability reads like this: (ICRF193 0 nM) over 45.8 µM; (ICRF193 200 nM) over 45.8 µM.

For `CC[C@@H](C(N)=O)N1CCCC1=O` [Levetiracetam], the IC50 cell viability is over 45.8 µM (ICRF193 0 nM) and over 45.8 µM (ICRF193 200 nM).

Consider `Cc1ccc(C(C)C)cc2c(C)ccc1-2` [Guaiazulene], for which the IC50 cell viability is, setting by setting: (ICRF193 0 nM) over 45.8 µM; (ICRF193 200 nM) over 45.8 µM.

As to `C[C@H](O)[C@H](O)[C@H]1CNc2nc(N)[nH]c(=O)c2N1` [(6R)-5,6,7,8-Tetrahydrobiopterin dihydrochloride], the IC50 cell viability reads like this: (ICRF193 0 nM) over 45.8 µM; (ICRF193 200 nM) over 45.8 µM.

Turning to `COc1ccc2c3c1O[C@H]1C[C@@H](O)C=C[C@@]31CCN(C)C2` [Galanthamine], the IC50 cell viability (ICRF193 0 nM) was over 45.8 µM and the IC50 cell viability (ICRF193 200 nM) is over 45.8 µM.

Regarding `C[N+]1(CCCCC[N+]2(C)CCCC2)CCCC1` [Pentolinium bitartrate], the IC50 cell viability is over 45.8 µM (ICRF193 0 nM) and over 45.8 µM (ICRF193 200 nM).

In the case of `O=C(CCCCC(=O)Nc1c(I)cc(I)c(C(=O)O)c1I)Nc1c(I)cc(I)c(C(=O)O)c1I` [Iodipamide], the IC50 cell viability is, setting by setting: (ICRF193 0 nM) over 45.8 µM; (ICRF193 200 nM) over 45.8 µM.

`Nc1nc(F)nc2c1ncn2[C@@H]1O[C@H](COP(=O)(O)O)[C@@H](O)[C@@H]1O` [Fludarabine phosphate]: the IC50 cell viability was over 45.8 µM (ICRF193 0 nM) and over 45.8 µM (ICRF193 200 nM).

In the case of `O=C(O)CCCCC1CCSS1` (stereo not drawn) [alpha-Lipoic acid], the IC50 cell viability runs as follows: (ICRF193 0 nM) over 45.8 µM; (ICRF193 200 nM) over 45.8 µM.

On to `O=C(Nc1ccc(Br)cc1)c1cc(Br)cc(Br)c1O` [Tribromsalan], for which the IC50 cell viability (ICRF193 0 nM) was over 45.8 µM and the IC50 cell viability (ICRF193 200 nM) is over 45.8 µM.

`Oc1ccc(Cl)c2cccnc12` [Cloxyquin]: the IC50 cell viability runs as follows: (ICRF193 0 nM) over 45.8 µM; (ICRF193 200 nM) over 45.8 µM.

On to `COc1c(O)cc2c(c1O)[C@@H]1O[C@H](CO)[C@@H](O)[C@H](O)[C@H]1OC2=O` [Bergenin monohydrate], for which the IC50 cell viability reads like this: (ICRF193 0 nM) over 45.8 µM; (ICRF193 200 nM) over 45.8 µM.

As to `N[C@@H](CSCCCO)C(=O)O` [Fudosteine], the IC50 cell viability is, setting by setting: (ICRF193 0 nM) over 45.8 µM; (ICRF193 200 nM) over 45.8 µM.

For the molecule `CCN[C@@H]1C[C@H](N)[C@@H](O[C@H]2OC(CN)=CC[C@H]2N)[C@H](O)[C@H]1O[C@H]1OC[C@](C)(O)[C@H](NC)[C@H]1O` [Netilmicin sulfate], the IC50 cell viability runs as follows: (ICRF193 0 nM) over 45.8 µM; (ICRF193 200 nM) over 45.8 µM.

As for `C[C@H](N)[C@H](O)c1cccc(O)c1` [Metaraminol bitartrate], the IC50 cell viability by setting is: (ICRF193 0 nM) over 45.8 µM; (ICRF193 200 nM) over 45.8 µM.

As to `C[C@H]1C[C@@H]2[C@H]([C@@H](O)C[C@@]3(C)[C@H]2CC[C@]3(O)C(=O)CO)[C@@]2(C)C=CC(=O)C=C12` [Methylprednisolone], the IC50 cell viability is, setting by setting: (ICRF193 0 nM) over 45.8 µM; (ICRF193 200 nM) over 45.8 µM.

Take `CCN(CC)C(=O)C1CN2CCc3cc(OC)c(OC)cc3C2CC1OC(C)=O` (stereo not drawn) [Benzquinamide]: the IC50 cell viability by setting is: (ICRF193 0 nM) over 45.8 µM; (ICRF193 200 nM) over 45.8 µM.

In the case of `CCNC(=O)CCC/C=C\C[C@@H]1[C@@H](/C=C/[C@@H](O)CCc2ccccc2)[C@H](O)C[C@@H]1O` [Bimatoprost], the IC50 cell viability runs as follows: (ICRF193 0 nM) over 45.8 µM; (ICRF193 200 nM) over 45.8 µM.

Consider `Oc1ccc(O)cc1` [Hydroquinone], for which the IC50 cell viability is over 45.8 µM (ICRF193 0 nM) and over 45.8 µM (ICRF193 200 nM).

Consider `CC1=C[C@H](O)CC(C)(C)[C@H]1/C=C/C(C)=C/C=C/C(C)=C/C=C/C=C(C)/C=C/C=C(C)/C=C/C1=C(C)C[C@@H](O)CC1(C)C` [Xanthophyll], for which the IC50 cell viability is over 45.8 µM (ICRF193 0 nM) and over 45.8 µM (ICRF193 200 nM).

Regarding `Cc1[nH]cnc1C[C@H]1CCc2c(C)c3ccccc3n2C1=O` [Fabesetron], the IC50 cell viability was over 45.8 µM (ICRF193 0 nM) and over 45.8 µM (ICRF193 200 nM).

For the molecule `CCCCCCC(=O)O[C@H]1CC[C@H]2[C@@H]3CCc4cc(O)ccc4[C@H]3CC[C@]12C` [Estradiol enanthate], the IC50 cell viability by setting is: (ICRF193 0 nM) over 45.8 µM; (ICRF193 200 nM) over 45.8 µM.

With `O=C(OCCN1CCCCC1)C(O)(c1ccccc1)c1ccccc1` [Piperilate hydrochloride], the IC50 cell viability reads like this: (ICRF193 0 nM) over 45.8 µM; (ICRF193 200 nM) over 45.8 µM.

As for `CN(C)CCc1c[nH]c2ccc(Cn3cncn3)cc12` [Rizatriptan Benzoate], the IC50 cell viability runs as follows: (ICRF193 0 nM) over 45.8 µM; (ICRF193 200 nM) over 45.8 µM.

`CCN(CC)CCOc1ccccc1C(=O)CCc1ccccc1` [Etafenone]: the IC50 cell viability is over 45.8 µM (ICRF193 0 nM) and over 45.8 µM (ICRF193 200 nM).

With `CC(=O)OCC(=O)[C@@]1(O)CC[C@H]2[C@@H]3CCC4=CC(=O)C=C[C@]4(C)[C@H]3[C@@H](O)C[C@@]21C` [Prednisolone acetate], the IC50 cell viability runs as follows: (ICRF193 0 nM) over 45.8 µM; (ICRF193 200 nM) over 45.8 µM.

Consider `O=C([O-])c1ccccc1-c1c2cc(Br)c(=O)cc-2oc2[c]([Hg+])c([O-])c(Br)cc12.[Na+].[Na+].[OH-]` [Merbromin], for which the IC50 cell viability by setting is: (ICRF193 0 nM) over 45.8 µM; (ICRF193 200 nM) over 45.8 µM.

On to `C[C@@](Cc1ccc(O)c(O)c1)(NN)C(=O)O` [Carbidopa], for which the IC50 cell viability (ICRF193 0 nM) is over 45.8 µM and the IC50 cell viability (ICRF193 200 nM) was over 45.8 µM.

For the molecule `CSCC[C@H](NC(=O)[C@H](Cc1ccc(OS(=O)(=O)O)cc1)NC(=O)[C@@H](N)CC(=O)O)C(=O)NCC(=O)N[C@@H](Cc1c[nH]c2ccccc12)C(=O)N[C@@H](CCSC)C(=O)N[C@@H](CC(=O)O)C(=O)N[C@@H](Cc1ccccc1)C(N)=O` [Sincalide], the IC50 cell viability runs as follows: (ICRF193 0 nM) over 45.8 µM; (ICRF193 200 nM) over 45.8 µM.

For the molecule `CCCCCCCCCCCCCCCCC(C(=O)O)C(O)(CC(=O)O)C(=O)O` (stereo not drawn) [Agaric acid], the IC50 cell viability reads like this: (ICRF193 0 nM) over 45.8 µM; (ICRF193 200 nM) over 45.8 µM.

Consider `CCOC(=O)c1ccc(C#Cc2ccc3c(c2)C(C)(C)CCS3)nc1` [Tazarotene], for which the IC50 cell viability is, setting by setting: (ICRF193 0 nM) over 45.8 µM; (ICRF193 200 nM) over 45.8 µM.

For the molecule `O=C(O)CCCC[C@@H]1SC[C@@H]2NC(=O)N[C@@H]21` [Biotin], the IC50 cell viability runs as follows: (ICRF193 0 nM) over 45.8 µM; (ICRF193 200 nM) over 45.8 µM.

Consider `CCCCCCCCC(=O)NCc1ccc(O)c(OC)c1` [Nonivamide], for which the IC50 cell viability runs as follows: (ICRF193 0 nM) over 45.8 µM; (ICRF193 200 nM) over 45.8 µM.

Take `NC(=O)[C@@H]1C[C@]2(NC(=O)NC2=O)c2cc(F)ccc2O1` [Fidarestat]: the IC50 cell viability is, setting by setting: (ICRF193 0 nM) over 45.8 µM; (ICRF193 200 nM) over 45.8 µM.

Take `Cc1c(O)c(=O)ccn1C` [Deferiprone]: the IC50 cell viability is over 45.8 µM (ICRF193 0 nM) and over 45.8 µM (ICRF193 200 nM).

Take `COc1ccc([C@]2(C#N)CC[C@@H](C(=O)O)CC2)cc1OC1CCCC1` [Cilomilast]: the IC50 cell viability by setting is: (ICRF193 0 nM) over 45.8 µM; (ICRF193 200 nM) over 45.8 µM.

`Cc1ccc(C(=O)C(C)CN2CCCCC2)cc1` (stereo not drawn) [Tolperisone hydrochloride]: the IC50 cell viability (ICRF193 0 nM) was over 45.8 µM and the IC50 cell viability (ICRF193 200 nM) is over 45.8 µM.

As to `CN(C)CCOC(=O)C(c1ccccc1)C1(O)CCCC1` (stereo not drawn) [Cyclopentolate hydrochloride], the IC50 cell viability was over 45.8 µM (ICRF193 0 nM) and over 45.8 µM (ICRF193 200 nM).

Take `CCO[C@@H](Cc1ccc(OCCc2ccc(OS(C)(=O)=O)cc2)cc1)C(=O)O` [Tesaglitazar]: the IC50 cell viability runs as follows: (ICRF193 0 nM) over 45.8 µM; (ICRF193 200 nM) over 45.8 µM.

Turning to `CCCCN1CCCC[C@H]1C(=O)Nc1c(C)cccc1C` [Levobupivacaine hydrochloride], the IC50 cell viability was over 45.8 µM (ICRF193 0 nM) and over 45.8 µM (ICRF193 200 nM).

With `OCC(O)C(O)C(O)CO` (stereo not drawn) [ARABITOL(D)], the IC50 cell viability reads like this: (ICRF193 0 nM) over 45.8 µM; (ICRF193 200 nM) over 45.8 µM.

Regarding `COc1ccc(C(=O)NCc2ccc(OCCN(C)C)cc2)cc1OC` [Itopride hydrochloride], the IC50 cell viability is over 45.8 µM (ICRF193 0 nM) and over 45.8 µM (ICRF193 200 nM).
